Data reported in patent publication US20250090699A1, “FAP TARGETING CYCLIC PEPTIDES AND CONJUGATES THEREOF” (Novartis AG, priority 2023, published 2025).
Starred links: 1 amine or outer side, 2 acyl side, 3 side chain; linkers in the order of their positions; H or OH if unused. Non-standard residues stand in square brackets, D forms with d. Residues, ends and D or L forms follow the SMILES beside them. Groups on a side chain read outwards from the residue. *: point of attachment. F(4OEtNHDOTA-Ga) = gallium complex of (S)-2,2',2''-(10-(2-((2-(4-(2-amino-2-carboxyethyl)phenoxy)ethyl)amino)-2-oxoethyl)-1,4,7,10-tetraazacyclododecane-1,4,7-triyl)triacetic acid (Phe with 4-O-ethylamino-DOTA-Ga), O=C([O-])CN1CCN(CC(=O)[O-])CCN(CC(=O)NCCOc2ccc(C[C@H](N[*:1])C(=O)[*:2])cc2)CCN(CC(=O)[O-])CC1.[Ga+3]; NODAGA = O=C(O)CN1CCN(CC(=O)O)CCN(C(CCC(=O)*)C(=O)O)CC1; Phe(4-CH2NH2) = NCc1ccc(C[C@H](N)C(=O)O)cc1; Piperazinyl(4-CH2COOH) = O=C(O)CN1CCN(*)CC1; X10 = O=C([C@H]1COCCN1[*:1])[*:2]; NMeF = CN[C@@H](Cc1ccccc1)C(=O)O; Ahp(2) = CCCCC[C@H](N)C(=O)O; hSer = N[C@@H](CCO)C(=O)O; Nphe = O=C(O)CNCc1ccccc1; AEEA = NCCOCCOCC(=O)O; CO = O=C([*:1])[*:2]; Propyl = CCC*

Tests used:
mouse FAP [1] = target: T1, mouse FAP (Mus musculus, UniProt P97321); test: Enzymatic FAP competition assay (Z-Gly-Pro-AMC fluorescence), mouse FAP; type: biochemical; conditions: read-out: m. FAP, Enz., IC50
T1 construct: biotinylated His, Avi tag, mouse FAP (26-761, FAP-M82Q5); His; Avi tag (biotinylated); purchased AcroBiosystems FAP-M82Q5
T1 sequence (P97321 26-761): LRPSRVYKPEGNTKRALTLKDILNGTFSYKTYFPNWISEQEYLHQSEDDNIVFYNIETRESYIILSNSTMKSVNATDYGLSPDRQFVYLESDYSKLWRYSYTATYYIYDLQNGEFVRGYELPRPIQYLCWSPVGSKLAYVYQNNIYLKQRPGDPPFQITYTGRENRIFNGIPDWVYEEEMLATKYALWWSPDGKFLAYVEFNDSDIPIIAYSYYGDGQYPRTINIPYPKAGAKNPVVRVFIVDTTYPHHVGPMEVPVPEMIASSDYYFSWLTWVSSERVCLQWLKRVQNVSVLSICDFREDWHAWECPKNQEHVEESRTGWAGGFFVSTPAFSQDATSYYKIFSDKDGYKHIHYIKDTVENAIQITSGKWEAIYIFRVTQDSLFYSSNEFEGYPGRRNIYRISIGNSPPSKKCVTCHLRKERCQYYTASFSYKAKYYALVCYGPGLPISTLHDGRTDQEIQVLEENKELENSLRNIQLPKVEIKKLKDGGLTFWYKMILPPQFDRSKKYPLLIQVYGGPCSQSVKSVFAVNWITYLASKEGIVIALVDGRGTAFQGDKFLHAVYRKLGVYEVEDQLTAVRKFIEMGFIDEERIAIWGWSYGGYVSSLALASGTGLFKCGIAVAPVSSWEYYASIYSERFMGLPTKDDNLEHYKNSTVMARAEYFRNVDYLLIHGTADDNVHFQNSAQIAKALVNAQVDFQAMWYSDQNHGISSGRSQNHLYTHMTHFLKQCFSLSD
Method: (§1) Peptide potencies (IC50) to inhibit the FAP enzymatic activity were determined using a fluorescence-based assay towards the biotinylated His, Avi tag, human FAP (26-760, FAP-H82Q6) and the biotinylated His, Avi tag, mouse FAP (26-761, FAP-M82Q5). Standard assay conditions consisted of 20 μL total volume in white 384-well plates (Greiner, Ref. 784075), in 50 mM phosphate buffer pH 7.5 containing 150 mM NaCl, 0.05% Tween20 and 1% final DMSO. Tested peptides at 14 different concentrations up to 1 μM were added to 0.01 nM human or mouse FAP. The peptides were incubated for 24 hours together with the protein before adding the substrate 50 μM Z-Gly-Pro-AMC (I-1145 from Bachem). Samples were then incubated at 22-24° C. for 4 h before reading the fluorescence at excitation wavelength of 380 nm and emission wavelength of 460 nm using the Tecan Infinite® M1000 PRO. The high control (100% activity) was not containing any peptide, and an internal potent peptide was added at 10 μM concentration for the low control (100% inhibition). IC50 values were calculated by curve fitting using an in-house developed software (Novartis Helios software application) using the method described by Fomenko et al., 2006 (regression algorithms for nonlinear dose-response curve fitting). Following normalization of activity values for the wells to % inhibition (% inhibition=[(high control-sample)/(high control-low control)]x 100). IC50 fitting was carried out from the duplicated points.

mouse FAP [2] = target: T1, mouse FAP; test: Surface plasmon resonance (SPR) for peptide affinity, mouse FAP; type: binding
Method: Peptide affinities (KD) were determined by SPR using a Biacore™ 8K device (Cytiva) towards the following proteins: biotinylated His, Avi tag, human FAP (26-760, FAP-H82Q6), biotinylated His, Avi tag, mouse FAP (26-761, FAP-M82Q5), His tag, human DPP4 (34-766, DP4-H82E3), all purchased from AcroBiosystems and His tag, mouse DPP4 (29-760, 954-SE) from R&D Systems. The FAP proteins and their homologous were diluted to a concentration of 2 μg/mL into acetate buffer pH 5.5, then immobilized onto a CM5 sensorchip (Cytiva, BR-1005-30) to reach a response around 2000 R U. The running buffer HBS-EP+pH 7.6 (20× from Teknova CAT. No: H8022) contained 10 mM HEPES pH 7.6, 150 mM NaCl, 3 mM EDTA, 0.05% Tween20 and 2% DMSO. Experiments were carried out at 25° C. using a flow rate of 30 μL/min. Compounds were tested in single cycle kinetic mode at 8 different concentrations. Curve fitting was performed using the Biacore™ 8K evaluation software. The sensorgrams were fitted by applying a 1:1 binding model to calculate kinetic rate constants and equilibrium dissociation constants (KD).
For this assay, the setup had the same conditions (flow rate, running buffer, peptide dilution) as described above for the CM5 method. The oligo CAP reagent obtained in the CAPture Kit (Ref. 28920234) was 1/5 diluted into running buffer and used with a contact time of 300 s at a flow rate of 2 μL/min. The human and mouse FAP constructs described above were used (from AcroBiosystems or produced in house). The FAP proteins were diluted to a concentration of 2 μg/mL into acetate pH 5.5, 0.05% Tween20 and used with a contact time of 600 s at a flow rate of 10 μL/min. The peptides were tested with an association time of 280 s followed by a dissociation time of 3000 s at a flow rate of 30 μL/min. The regeneration was done using the regeneration solution (8 M guanidine-HCl, 1 M NaOH) as obtained with a contact time of 270 s at a flow rate of 10 μL/min. […] The compounds marked with an asterisk were tested against human and mouse DDP4.

human FAP = target: T2, human FAP (Homo sapiens, UniProt Q12884); test: Enzymatic FAP competition assay (Z-Gly-Pro-AMC fluorescence), human FAP; type: biochemical; conditions: read-out: h. FAP, Enz., IC50
T2 construct: the biotinylated His, Avi tag, human FAP (26-760, FAP-H82Q6); His; Avi tag (biotinylated); purchased AcroBiosystems FAP-H82Q6
T2 sequence (Q12884 26-760): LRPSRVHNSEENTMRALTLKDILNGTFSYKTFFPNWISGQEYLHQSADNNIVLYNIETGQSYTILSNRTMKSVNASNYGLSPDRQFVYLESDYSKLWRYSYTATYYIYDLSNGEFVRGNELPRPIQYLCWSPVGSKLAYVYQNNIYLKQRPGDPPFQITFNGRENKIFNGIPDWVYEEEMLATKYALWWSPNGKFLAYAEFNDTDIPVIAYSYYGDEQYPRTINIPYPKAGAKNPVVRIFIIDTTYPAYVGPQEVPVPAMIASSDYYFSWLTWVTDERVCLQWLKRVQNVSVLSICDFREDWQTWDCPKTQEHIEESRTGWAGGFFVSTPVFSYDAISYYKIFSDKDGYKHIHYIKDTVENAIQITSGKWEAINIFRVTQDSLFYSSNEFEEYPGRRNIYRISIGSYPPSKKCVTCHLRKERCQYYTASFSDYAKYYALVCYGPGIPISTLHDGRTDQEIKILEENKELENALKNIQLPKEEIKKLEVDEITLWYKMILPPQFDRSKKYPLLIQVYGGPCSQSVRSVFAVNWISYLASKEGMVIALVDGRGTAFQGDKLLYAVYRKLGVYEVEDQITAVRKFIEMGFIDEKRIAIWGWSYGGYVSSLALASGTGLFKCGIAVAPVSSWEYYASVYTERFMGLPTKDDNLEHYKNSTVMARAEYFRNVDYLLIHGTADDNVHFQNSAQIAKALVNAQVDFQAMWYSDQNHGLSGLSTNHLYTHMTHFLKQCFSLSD
Method: as §1

Compound | IC50 (mouse FAP [1]) | Kd (mouse FAP [2]) | IC50 (human FAP)
CCCCC[C@@H]1NC(=O)[C@H](Cc2ccc(O)cc2)NC(=O)[C@H](Cc2ccccc2)N(C)C(=O)CNC(=O)CNC(=O)[C@H]2CCCN2C(=O)[C@H](CCO)NC(=O)[C@H](Cc2ccc(O)cc2)NC(=O)CNC(=O)[C@H](Cc2c[nH]c3ccccc23)NC1=O [Example A57, Gly-Gly-NMePhe-Tyr-Ahp-Trp-Gly-Tyr-hSer-D-Pro] (cyclo([Ahp(2)]WGY[hSer][dP]GG[NMeF]Y)) | 25 nM | 19 nM | 6.6 nM
CCCCC[C@@H]1NC(=O)[C@H](Cc2ccc(O)cc2)NC(=O)[C@H](Cc2ccccc2)N(C)C(=O)CNC(=O)CNC(=O)[C@H]2CCCN2C(=O)[C@H](CC(=O)O)NC(=O)CN(Cc2ccccc2)C(=O)CNC(=O)[C@H](Cc2c[nH]c3ccccc23)NC1=O [Example A74, Gly-Gly-NMePhe-Tyr-Ahp-Trp-Gly-NBnG-Asp-D-Pro] (cyclo(GG[NMeF]Y[Ahp(2)]WG[Nphe]D[dP])) | 3.3 nM | 4.6 nM | 1.4 nM
CCCCC[C@@H]1NC(=O)[C@H](Cc2ccc(O)cc2)NC(=O)[C@H](Cc2ccccc2)N(C)C(=O)CNC(=O)CNC(=O)[C@H]2COCCN2C(=O)[C@H](CC(=O)O)NC(=O)[C@H](Cc2ccc(O)cc2)NC(=O)CNC(=O)[C@H](Cc2c[nH]c3ccccc23)NC1=O [Example A63, Gly-Gly-NMePhe-Tyr-Ahp-Trp-Gly-Tyr-Asp-Mor(3R-COOH)] (cyclo([Ahp(2)]WGYD[X10]GG[NMeF]Y)) | 55 nM | 20 nM | 15 nM

These reach a lower IC50 (mouse FAP [1]). Values come first.

IC50 (mouse FAP [1]) | Kd (mouse FAP [2]) | IC50 (human FAP) | Compound
0.039 nM | < 0.034 nM | 0.015 nM | CCCOCC[C@@H]1NC(=O)[C@H](Cc2ccc(CNC(=O)COCCOCCNC(=O)CCC(C(=O)O)N3CCN(CC(=O)O)CCN(CC(=O)O)CC3)cc2)NC(=O)[C@H](Cc2ccccc2)N(C)C(=O)CNC(=O)CNC(=O)[C@H]2CCCN2C(=O)[C@H](CC(=O)O)NC(=O)[C@H](CCCCNC(=O)N2CCN(CC(=O)O)CC2)NC(=O)CNC(=O)[C@H](Cc2c[nH]c3ccccc23)NC1=O (stereo partly drawn) [Example B33, Gly-Gly-NMePhe-F(4amPEG2NHNODAGA)-hS(pr)-Trp-Gly-K(COpipzaa)-Asp-D-Pro] (cyclo(D[dP]GG[NMeF][Phe(4-CH2NH2)]([AEEA-NODAGA])[hSer](Propyl)WGK([CO-Piperazinyl(4-CH2COOH)])))
0.058 nM | 0.026 nM | 0.03 nM | Gly-Gly-NMePhe-F(4OEtNHDOTA-Ga)-Ahp-Trp-Gly-Tyr-Asp-D-Pro (cyclo(GG[NMeF][F(4OEtNHDOTA-Ga)][Ahp(2)]WGYD[dP]); also: Ga complex of DOTA) [Example C51]
